Results published in PubChem BioAssay (NCI).
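Grown in 96-well plates, cells were treated for 48 hours with each compound at five concentrations. Insufficient inhibition: endpoint recorded as highest concentration tested. GI50 marks 50% less growth. Definition used: TGI = concentration required for complete inhibition of growth.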

How the values were obtained:
Assay in all cases: inhibition of tumour cell growth, NCI panel, 48 h
SNB-75 CNS = tested on: SNB-75 CNS
NCI/ADR-RES ovarian = tested on: NCI/ADR-RES ovarian
OVCAR-5 ovarian = tested on: OVCAR-5 ovarian
IGROV1 ovarian = tested on: IGROV1 ovarian
HCT-15 colon = tested on: HCT-15 colon
SW-620 colon = tested on: SW-620 colon
SK-MEL-2 melanoma = tested on: SK-MEL-2 melanoma
T-47D breast = tested on: T-47D breast
PC-3 prostate = tested on: PC-3 prostate
HS 578T breast = tested on: HS 578T breast
HT29 colon = tested on: HT29 colon
HCT-116 colon = tested on: HCT-116 colon
SF-268 CNS = tested on: SF-268 CNS
U251 CNS = tested on: U251 CNS
NCI-H522 lung = tested on: NCI-H522 lung
NCI-H226 lung = tested on: NCI-H226 lung
OVCAR-4 ovarian = tested on: OVCAR-4 ovarian
MDA-MB-435 = tested on: MDA-MB-435
M14 melanoma = tested on: M14 melanoma
UACC-257 melanoma = tested on: UACC-257 melanoma
CCRF-CEM leukemia = tested on: CCRF-CEM leukemia
SK-OV-3 ovarian = tested on: SK-OV-3 ovarian
DU-145 prostate = tested on: DU-145 prostate
ACHN renal = tested on: ACHN renal
HL-60(TB) leukemia = tested on: HL-60(TB) leukemia
RXF 393 renal = tested on: RXF 393 renal
RPMI-8226 leukemia = tested on: RPMI-8226 leukemia
MOLT-4 leukemia = tested on: MOLT-4 leukemia
A549 NSCLC = tested on: A549 NSCLC
MDA-MB-231 breast = tested on: MDA-MB-231 breast
SK-MEL-5 melanoma = tested on: SK-MEL-5 melanoma
HOP-92 NSCLC = tested on: HOP-92 NSCLC
SF-539 CNS = tested on: SF-539 CNS
MCF7 breast = tested on: MCF7 breast
TK-10 renal = tested on: TK-10 renal
LOX IMVI melanoma = tested on: LOX IMVI melanoma
HOP-62 NSCLC = tested on: HOP-62 NSCLC
SNB-19 CNS = tested on: SNB-19 CNS
OVCAR-3 ovarian = tested on: OVCAR-3 ovarian
NCI-H23 lung = tested on: NCI-H23 lung
KM12 colon = tested on: KM12 colon
BT-549 breast = tested on: BT-549 breast
HCC-2998 colon = tested on: HCC-2998 colon
OVCAR-8 ovarian = tested on: OVCAR-8 ovarian
A498 renal = tested on: A498 renal
SF-295 CNS = tested on: SF-295 CNS
SK-MEL-28 melanoma = tested on: SK-MEL-28 melanoma
CAKI-1 renal = tested on: CAKI-1 renal
K-562 leukemia = tested on: K-562 leukemia
UACC-62 melanoma = tested on: UACC-62 melanoma
SN12C renal = tested on: SN12C renal
COLO 205 colon = tested on: COLO 205 colon
UO-31 renal = tested on: UO-31 renal
EKVX NSCLC = tested on: EKVX NSCLC
SR leukemia = tested on: SR leukemia
NCI-H460 lung = tested on: NCI-H460 lung
786-0 renal = tested on: 786-0 renal
MALME-3M melanoma = tested on: MALME-3M melanoma

Nc1no[n+]([O-])c1-c1nnc2c(n1)-c1ccccc1C2=O
GI50 (SNB-75 CNS): 17.4 µM
TGI (SNB-75 CNS): 34.5 µM
GI50 (NCI/ADR-RES ovarian): 3.73 µM
TGI (NCI/ADR-RES ovarian): 32.3 µM
GI50 (OVCAR-5 ovarian): 1.88 µM
TGI (OVCAR-5 ovarian): 3.77 µM
GI50 (IGROV1 ovarian): 3.02 µM
TGI (IGROV1 ovarian): 11.7 µM
GI50 (HCT-15 colon): 1.83 µM
TGI (HCT-15 colon): 3.91 µM
GI50 (SW-620 colon): 1.83 µM
TGI (SW-620 colon): 3.65 µM
GI50 (SK-MEL-2 melanoma): 9.13 µM
TGI (SK-MEL-2 melanoma): 24.4 µM
GI50 (T-47D breast): 1.91 µM
TGI (T-47D breast): 5.35 µM
GI50 (PC-3 prostate): 2.91 µM
TGI (PC-3 prostate): 12.6 µM
GI50 (HS 578T breast): 5.58 µM
TGI (HS 578T breast): 65 µM
GI50 (HT29 colon): 2.41 µM
TGI (HT29 colon): 6.74 µM
GI50 (HCT-116 colon): 1.38 µM
TGI (HCT-116 colon): 3.62 µM
GI50 (SF-268 CNS): 4.4 µM
TGI (SF-268 CNS): 17.3 µM
GI50 (U251 CNS): 3.76 µM
TGI (U251 CNS): 13.7 µM
GI50 (NCI-H522 lung): 2.02 µM
TGI (NCI-H522 lung): 5.87 µM
GI50 (NCI-H226 lung): 16.1 µM
TGI (NCI-H226 lung): 37.7 µM
GI50 (OVCAR-4 ovarian): 1.42 µM
TGI (OVCAR-4 ovarian): 2.74 µM
GI50 (MDA-MB-435): 1.91 µM
TGI (MDA-MB-435): 3.82 µM
GI50 (M14 melanoma): 1.78 µM
TGI (M14 melanoma): 3.66 µM
GI50 (UACC-257 melanoma): 1.93 µM
TGI (UACC-257 melanoma): 3.98 µM
GI50 (CCRF-CEM leukemia): 3.22 µM
TGI (CCRF-CEM leukemia): 9.37 µM
GI50 (SK-OV-3 ovarian): 16.2 µM
TGI (SK-OV-3 ovarian): 51.5 µM
GI50 (DU-145 prostate): 1.74 µM
TGI (DU-145 prostate): 3.45 µM
GI50 (ACHN renal): 1.56 µM
TGI (ACHN renal): 3.1 µM
GI50 (HL-60(TB) leukemia): 2.13 µM
TGI (HL-60(TB) leukemia): 5.54 µM
GI50 (RXF 393 renal): 3.22 µM
TGI (RXF 393 renal): 12.4 µM
GI50 (RPMI-8226 leukemia): 2.76 µM
TGI (RPMI-8226 leukemia): 7.73 µM
GI50 (MOLT-4 leukemia): 2.38 µM
TGI (MOLT-4 leukemia): 6.21 µM
GI50 (A549 NSCLC): 5.44 µM
TGI (A549 NSCLC): 20.3 µM
GI50 (MDA-MB-231 breast): 2.89 µM
TGI (MDA-MB-231 breast): 9.4 µM
GI50 (SK-MEL-5 melanoma): 1.66 µM
TGI (SK-MEL-5 melanoma): 3.13 µM
GI50 (HOP-92 NSCLC): 2.21 µM
TGI (HOP-92 NSCLC): 6.63 µM
GI50 (SF-539 CNS): 1.8 µM
TGI (SF-539 CNS): 3.67 µM
GI50 (MCF7 breast): 1.55 µM
TGI (MCF7 breast): 3.94 µM
GI50 (TK-10 renal): 13.9 µM
TGI (TK-10 renal): 27.6 µM
GI50 (LOX IMVI melanoma): 1.81 µM
TGI (LOX IMVI melanoma): 4.16 µM
GI50 (HOP-62 NSCLC): 2.74 µM
TGI (HOP-62 NSCLC): 10 µM
GI50 (SNB-19 CNS): 4.88 µM
TGI (SNB-19 CNS): 16.7 µM
GI50 (OVCAR-3 ovarian): 0.569 µM
TGI (OVCAR-3 ovarian): 3.83 µM
GI50 (NCI-H23 lung): 1.88 µM
TGI (NCI-H23 lung): 4.35 µM
GI50 (KM12 colon): 3.53 µM
TGI (KM12 colon): 15.3 µM
GI50 (BT-549 breast): 2.99 µM
TGI (BT-549 breast): 12.9 µM
GI50 (HCC-2998 colon): 13 µM
TGI (HCC-2998 colon): 26.8 µM
GI50 (OVCAR-8 ovarian): 3.19 µM
TGI (OVCAR-8 ovarian): 10.4 µM
GI50 (A498 renal): 22.2 µM
TGI (A498 renal): 63.2 µM
GI50 (SF-295 CNS): 12.5 µM
TGI (SF-295 CNS): 34.3 µM
GI50 (SK-MEL-28 melanoma): 3.91 µM
TGI (SK-MEL-28 melanoma): 13.4 µM
GI50 (CAKI-1 renal): 2.3 µM
TGI (CAKI-1 renal): 6.67 µM
GI50 (K-562 leukemia): 1.26 µM
TGI (K-562 leukemia): 4.54 µM
GI50 (UACC-62 melanoma): 4.47 µM
TGI (UACC-62 melanoma): 15.7 µM
GI50 (SN12C renal): 1.86 µM
TGI (SN12C renal): 3.51 µM
GI50 (COLO 205 colon): 1.93 µM
TGI (COLO 205 colon): 4.35 µM
GI50 (UO-31 renal): 2.25 µM
TGI (UO-31 renal): 6.75 µM
GI50 (EKVX NSCLC): 2.29 µM
TGI (EKVX NSCLC): 5.86 µM
GI50 (SR leukemia): 2.48 µM
GI50 (NCI-H460 lung): 3.38 µM
TGI (NCI-H460 lung): 11.4 µM
GI50 (786-0 renal): 4.3 µM
TGI (786-0 renal): 16.8 µM
GI50 (MALME-3M melanoma): 1.74 µM
TGI (MALME-3M melanoma): 3.45 µM
